Measured values: patent US9227971B2, “Pyrazolo[1,5-a]pyrimidine compounds as mTOR inhibitors” (Merck Sharp & Dohme Corp., priority 2010, dated 2016)
Where two headings read alike, the source gives them in different places.

Experiments:
[1] = system: phosphorylated AKT Ser473 (pAKT S473), mTORC2 activity, PC3 cells; assay: mTOR target engagement assay, immunofluorescent cell-based, pAKT S473 readout (mTORC2 activity)
Experimental: (§1) The target engagement of mTOR kinase inhibitors was evaluated using an immunofluorescent cell-based assay. In this assay, inhibition of mTORC1 activity was measured by the reduction in the level of phosphorylated 4E-BP1^[…] (p4E-BP1 Thr37/46), and inhibition of mTORC2 activity was measured by the reduction of phosphorylated AKT^Ser473 (pAKT S473).
PC3 cells (prostate tumor cell-line that contains a mutation in the tumor suppressor PTEN, that promotes the phosphorylation and activation of AKT and 4E-BP1) were used in the immunofluorescence assay. […] PC3 cells were then treated with 40 μl of the serially diluted test compounds (in 5% fetal bovine serum, F12 medium containing 0.25% DMSO) for ninety minutes at 37° C. The test compound solution was removed, and the plates were washed gently two times with 25 μl phosphate buffered saline (PBS). […] 5% Goat serum in PBS/0.3% Triton was used to block non-specific binding (60 minutes).
The primary antibodies targeting pAKT S473 and p4E-BP1 Thr37/46 were diluted into PBS/0.3% Triton and incubated with the cells overnight at 4° C. […] Plates were washed three times with PBS/0.1% Tween 20 before adding the secondary antibody at a 1:200 dilution.
Finally, the plates were washed three times with PBS/0.1% Tween 20 and the fluorescent intensity was read using an Analyst HT from Molecular Devices.

[2] = system: phosphorylated 4E-BP1 Thr37/46 (p4E-BP1 Thr37/46), mTORC1 activity, PC3 cells; assay: mTOR target engagement assay, immunofluorescent cell-based, p4E-BP1 Thr37/46 readout (mTORC1 activity); conditions: read-out: p4E-BP1 Thr37/46 IC50
Experimental: as §1
PC3 cells (prostate tumor cell-line that contains a mutation in the tumor suppressor PTEN, that promotes the phosphorylation and activation of AKT and 4E-BP1) were used in the immunofluorescence assay. PC3 cells were seeded on 384 well plates (black clear bottom, Matrix #4332) overnight. PC3 cells were then treated with 40 μl of the serially diluted test compounds (in 5% fetal bovine serum, F12 medium containing 0.25% DMSO) for ninety minutes at 37° C. The test compound solution was removed, and the plates were washed gently two times with 25 μl phosphate buffered saline (PBS). The cells were fixed by adding 25 μl of Prefer reagent (from Anatech LTD, Cat#414, a glyoxal fixative for fixing proteins within a cell) for sixty minutes followed by three washes with PBS. 5% Goat serum in PBS/0.3% Triton was used to block non-specific binding (60 minutes).
The primary antibodies targeting pAKT S473 and p4E-BP1 Thr37/46 were diluted into PBS/0.3% Triton and incubated with the cells overnight at 4° C. The antibodies targeting pAKTS473 (Cat#4085, Cell signaling) and p4E-BP1 Thr37/46 (Cat#2855, Cell signaling) were used at a 1:100 dilution. Plates were washed three times with PBS/0.1% Tween 20 before adding the secondary antibody at a 1:200 dilution. (goat anti-rabbit containing a fluorescent label, Alexa Fluor 488, Cat#A11008, Invitrogen) in PBS/0.3% Triton for 60 minutes.
Finally, the plates were washed three times with PBS/0.1% Tween 20 and the fluorescent intensity was read using an Analyst HT from Molecular Devices. The fluorescent intensity values from the serially diluted compound treatment group were analyzed using the Xlfit 4 program ([…]) (Formula 205: Y=Bottom+(Top-Bottom)/(1+(IC50/X)^Hillslope) to generate the IC50 value. Where Top is the maximum signal without Compound (+DMSO only) and Bottom represents maximum inhibition. Y is the fluorescence at some compound concentration. The control used to determine the fluorescent intensities for 100% pAKT S473 or 100% phosphorylated p4E-BP1 Thr37/46 were measured from untreated wells that contained only DMSO, instead of test compound.

[3] = PC3 cells, compound treatment ninety minutes at 37° C.
[4] = Homo sapiens, PC-3, PC3 cells, compound treatment ninety minutes at 37° C.

“1-((1R,3s,5S)-3-(6-acetyl-7-amino-3-(6-(cyclopropylamino)pyridin-3-yl)pyrazolo[1,5-a]pyrimidin-5-yl)-8-azabicyclo[3.2.1]octan-8-yl)-2-hydroxyethanone [Compound 8.50]” gave an IC50 ([1]; PC3 cells) of 0.1 to 1 µM and an IC50 ([2]; PC3 cells) of 0.1 to 1 µM.
“1-((1R,3s,5S)-3-(6-acetyl-7-amino-3-(6-(fluoromethyl)pyridin-3-yl)pyrazolo[1,5-a]pyrimidin-5-yl)-8-azabicyclo[3.2.1]octan-8-yl)-2-hydroxyethanone [Compound 1.1.92]” gave an IC50 [1, 3] of 0.001 to 0.1 µM and an IC50 [2, 3] of 0.001 to 0.1 µM.
Work on “1-((1R,3s,5S)-3-(7-amino-3-(6-(4-methoxy-(D3)-phenyl)pyridin-3-yl)-6-(methylsulfonyl)pyrazolo[1,5-a]pyrimidin-5-yl)-8-azabicyclo[3.2.1]octan-8-yl)-2-hydroxyethanone [Compound 3.67]” yielded an IC50 ([1]; Table 3-1, PC3 cells) of 0.001 to 0.1 µM and an IC50 ([2]; Table 3-1, PC3 cells) of 0.1 to 1 µM.
Work on `CC(=O)c1c([C@@H]2C[C@H]3CC[C@@H](C2)N3C(=O)C2CCS(=O)(=O)N2)nc2c(-c3ccc(-c4ccccc4)nc3)cnn2c1N` (mixture of isomers) [Compound 1.1.4, (EXO)-3-[6-ACETYL-7-AMINO-3-(6-PHENYL-3-PYRIDINYL)PYRAZOLO[1,5-a]PYRIMIDIN-5-YL]-8-[(1,1-DIOXIDO-3-ISOTHIAZOLIDINYL)CARBONYL]-8-AZABICYCLO[3.2.1]OCTANE (MIX. OF 2 DIASTEREOMERS)] yielded an IC50 [1, 4] of 0.1 to 1 µM and an IC50 [2, 4] of 0.1 to 1 µM.
Compound `CS(=O)(=O)c1c(C2CC3COCC(C2)N3C(=O)c2nc[nH]n2)nc2c(-c3ccc(-c4ccccc4)nc3)cnn2c1N` (single isomer, unassigned) [Compound 8.30, (7-(7-amino-6-(methylsulfonyl)-3-(6-phenylpyridin-3-yl)pyrazolo[1,5-a]pyrimidin-5-yl)-3-oxa-9-azabicyclo[3.3.1]nonan-9-yl)(1H-1,2,4-triazol-3-yl)methanone] has an IC50 ([1]; PC3 cells) of 0.001 to 0.1 µM and an IC50 ([2]; PC3 cells) of 0.001 to 0.1 µM.
For `CS(=O)(=O)c1c(C2CC3COCC(C2)N3C(=O)c2nc[nH]n2)nc2c(-c3ccc(-c4ccccc4)nc3)cnn2c1N` (single isomer, unassigned) [Compound 8.31, (7-(7-amino-6-(methylsulfonyl)-3-(6-phenylpyridin-3-yl)pyrazolo[1,5-a]pyrimidin-5-yl)-3-oxa-9-azabicyclo[3.3.1]nonan-9-yl)(1H-1,2,4-triazol-3-yl)methanone], the IC50 ([1]; PC3 cells) was 0.1 to 1 µM and the IC50 ([2]; PC3 cells) was 0.1 to 1 µM.
With `CS(=O)(=O)c1c(C2CC3COCC(C2)N3C(=O)C2(O)CC2)nc2c(-c3ccc(-c4ccccc4)nc3)cnn2c1N` (single isomer, unassigned) [Compound 8.32, (7-(7-amino-6-(methylsulfonyl)-3-(6-phenylpyridin-3-yl)pyrazolo[1,5-a]pyrimidin-5-yl)-3-oxa-9-azabicyclo[3.3.1]nonan-9-yl)(1-hydroxycyclopropyl)methanone] the IC50 ([1]; Homo sapiens, PC-3, PC3 cells) was 0.001 to 0.1 µM and the IC50 ([2]; Homo sapiens, PC-3, PC3 cells) was 0.1 to 1 µM.
`COc1cc(-c2ccc(-c3cnn4c(N)c(C5CC5)c([C@@H]5C[C@H]6CC[C@@H](C5)N6C(=O)c5nnc[nH]5)nc34)cn2)ccc1F` [Compound 4.11, ((1R,3a,5S)-3-(7-amino-6-cyclopropyl-3-(6-(4-fluoro-3-methoxyphenyl)pyridin-3-yl)pyrazolo[1,5-a]pyrimidin-5-yl)-8-azabicyclo[3.2.1]octan-8-yl)(4H-1,2,4-triazol-3-yl)methanone] showed an IC50 [2, 4] of over 10 µM.
With `Nc1cc([C@@H]2C[C@H]3CC[C@@H](C2)N3C(=O)c2nnc[nH]2)nc2c(-c3ccc(C4(O)CCC4)nc3)cnn12` [Compound 7.44, ((1R,3s,5S)-3-(7-amino-3-(6-(1-hydroxycyclobutyl)pyridin-3-yl)pyrazolo[1,5-a]pyrimidin-5-yl)-8-azabicyclo[3.2.1]octan-8-yl)(4H-1,2,4-triazol-3-yl)methanone] the IC50 ([2]; Homo sapiens, PC-3, Table 7-8, PC3 cells) was 1 to 10 µM.
Work on `CC(=O)c1c([C@H]2CC3CC[C@H](C2)N3C(=O)c2nnc[nH]2)nc2c(-c3cnc4c(c3)CCC4O)cnn2c1N` (stereo partly drawn) [Compound 7.60, 1-(5-((1R,3s,5S)-8-(4H-1,2,4-triazole-3-carbonyl)-8-azabicyclo[3.2.1]octan-3-yl)-7-amino-3-(7-hydroxy-6,7-dihydro-5H-cyclopenta[b]pyridin-3-yl)pyrazolo[1,5-a]pyrimidin-6-yl)ethanone] yielded an IC50 ([1]; Homo sapiens, PC-3, PC3 cells) of 0.1 to 1 µM.
In the case of `CC(=O)c1c(N2CC3CCC(C2)N3C(=O)c2nnc[nH]2)nc2c(-c3ccc(-c4ccccc4)nc3)cnn2c1N` [Compound 8.1, 1-(5-(8-(4H-1,2,4-triazole-3-carbonyl)-3,8-diazabicyclo[3.2.1]octan-3-yl)-7-amino-3-(6-phenylpyridin-3-yl)pyrazolo[1,5-a]pyrimidin-6-yl)ethanone], the IC50 ([1]; Homo sapiens, PC-3, PC3 cells) is reported as 0.1 to 1 µM.
With `CC(=O)c1c(N2CC3CCC(C2)N3C(=O)[C@@H](C)O)nc2c(-c3ccc(-c4ccccc4)nc3)cnn2c1N` [Compound 8.2, (2R)-1-(3-(6-acetyl-7-amino-3-(6-phenylpyridin-3-yl)pyrazolo[1,5-a]pyrimidin-5-yl)-3,8-diazabicyclo[3.2.1]octan-8-yl)-2-hydroxypropan-1-one] the IC50 ([1]; Homo sapiens, PC-3, PC3 cells) was 0.1 to 1 µM.
In the case of `CC(=O)c1c(N2CC3CCC2CN3C(=O)c2nnc[nH]2)nc2c(-c3ccc(-c4ccccc4)nc3)cnn2c1N` (stereo not shown) [Compound 8.3, 1-(5-(5-(4H-1,2,4-triazole-3-carbonyl)-2,5-diazabicyclo[2.2.2]octan-2-yl)-7-amino-3-(6-phenylpyridin-3-yl)pyrazolo[1,5-a]pyrimidin-6-yl)ethanone], the IC50 ([1]; Homo sapiens, PC-3, PC3 cells) is reported as 0.1 to 1 µM.
For `CC(=O)c1c(N2CC3CCC2CN3C(=O)[C@@H](C)O)nc2c(-c3ccc(-c4ccccc4)nc3)cnn2c1N` (stereo partly drawn) [Compound 8.4, (2R)-1-(5-(6-acetyl-7-amino-3-(6-phenylpyridin-3-yl)pyrazolo[1,5-a]pyrimidin-5-yl)-2,5-diazabicyclo[2.2.2]octan-2-yl)-2-hydroxypropan-1-one], the IC50 ([1]; Homo sapiens, PC-3, PC3 cells) was 1 to 10 µM.
With `CCOC(=O)Nc1ccc(-c2cnn3c(N)c(C(C)=O)c([C@@H]4C[C@H]5CC[C@@H](C4)N5C(=O)CO)nc23)cn1` [Compound 8.77, ethyl 5-(6-acetyl-7-amino-5-((1R,3s,5S)-8-(2-hydroxyacetyl)-8-azabicyclo[3.2.1]octan-3-yl)pyrazolo[1,5-a]pyrimidin-3-yl)pyridin-2-ylcarbamate] the IC50 ([1]; Homo sapiens, PC-3, PC3 cells) was 0.1 to 1 µM.
For `Nc1ncc(-c2cnn3c(N)cc([C@@H]4C[C@H]5CC[C@@H](C4)N5C(=O)c4nnc[nH]4)nc23)cn1` [Compound 8.88, ((1R,3s,5S)-3-(7-amino-3-(2-aminopyrimidin-5-yl)pyrazolo[1,5-a]pyrimidin-5-yl)-8-azabicyclo[3.2.1]octan-8-yl)(4H-1,2,4-triazol-3-yl)methanone], the IC50 ([1]; Homo sapiens, PC-3, PC3 cells) was over 10 µM.
In the case of `CS(=O)(=O)c1c([C@@H]2C[C@H]3CC[C@@H](C2)N3CC(N)=O)nc2c(-c3ccc(-c4ccccc4)nc3)cnn2c1N` [Compound 8.92, 2-((1R,3s,5S)-3-(7-amino-6-(methylsulfonyl)-3-(6-phenylpyridin-3-yl)pyrazolo[1,5-a]pyrimidin-5-yl)-8-azabicyclo[3.2.1]octan-8-yl)acetamide], the IC50 ([1]; Homo sapiens, PC-3, PC3 cells) is reported as 1 to 10 µM.
Compound `CC(=O)c1c([C@@H]2C[C@H]3CC[C@@H](C2)N3C(=O)c2nnc[nH]2)nc2c(-c3cnc(C(N)=O)nc3)cnn2c1N` [Compound 8.97, 5-(5-((1R,3s,5S)-8-(4H-1,2,4-triazole-3-carbonyl)-8-azabicyclo[3.2.1]octan-3-yl)-6-acetyl-7-aminopyrazolo[1,5-a]pyrimidin-3-yl)pyrimidine-2-carboxamide] has an IC50 ([1]; Homo sapiens, PC-3, PC3 cells) of 1 to 10 µM.
